“And” between values parts separate entries of the source, which are not always exact repeats. Identical values can stand only once. Inconclusive results and toxic doses are left out. The calls were made as follows: active = survival T/C of 150% or more; inactive = T/C below 125% in these data.
Test system: CD2F1 mice, L1210 leukemia ip, survival T/C
Test: NCI In Vivo Anticancer Drug Screen. Data for tumor model L1210 Leukemia (intraperitoneal) in CD2F1 (CDF1) mice
Settings: higher = longer survival
Summary of the method: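 Implant tumor; dose compound or vehicle; measure endpoint in both groups; report treated divided by control.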

[1] = endpoint: mean survival time, dose: 100.0 mg/kg/injection, schedule: Q04DX003 (ip), vehicle: saline with Tween-80
[2] = endpoint: mean survival time, dose: 200.0 mg/kg/injection, schedule: Q04DX003 (ip), vehicle: saline with Tween-80
[3] = endpoint: mean survival time, dose: 400.0 mg/kg/injection, schedule: Q01DX009 (ip), vehicle: saline sonified
[4] = endpoint: mean survival time, dose: 400.0 mg/kg/injection, schedule: Q01DX009 (ip), vehicle: saline with Tween-80
[5] = endpoint: mean survival time, dose: 400.0 mg/kg/injection, schedule: Q04DX003 (ip), vehicle: saline with Tween-80
[6] = endpoint: mean survival time, dose: 100.0 mg/kg/injection, schedule: Q01DX009 (ip), vehicle: saline with Tween-80
[7] = endpoint: mean survival time, dose: 200.0 mg/kg/injection, schedule: Q01DX009 (ip), vehicle: saline with Tween-80
[8] = endpoint: mean survival time, dose: 50.0 mg/kg/injection, schedule: Q01DX009 (ip), vehicle: saline with Tween-80
[9] = endpoint: mean survival time, dose: 25.0 mg/kg/injection, schedule: Q01DX009 (ip), vehicle: saline with Tween-80

Measured: T/C

CCOC(=O)c1[nH]cnc1/N=N/N(C)CCO
active: endpoint: mean survival time, dose: 264.0 mg/kg/injection, schedule: Q01DX009 (ip), vehicle: saline sonified 160 % of control | [3] 162 % of control | [4] 150 % of control | endpoint: mean survival time, dose: 600.0 mg/kg/injection, schedule: Q01DX009 (ip), vehicle: saline sonified 165 % of control
inactive: [1] 106 % of control | [2] 111 % of control | [5] 109 % of control

O=S(=O)(F)c1ccc2nc(-c3cccc(Sc4ccccc4)c3)cc(Cl)c2c1
inactive: [6] 97 % of control | [1] 97 % of control | [7] 93 % of control | [2] 90 % of control | [4] 97 % of control | [5] 96 % of control

CN(C)CC1CCCCC(CN(C)C)C1=O (stereo not given)
inactive: endpoint: mean survival time, dose: 75.0 mg/kg/injection, schedule: Q01DX001 (ip), vehicle: saline 120 % of control | endpoint: mean survival time, dose: 150.0 mg/kg/injection, schedule: Q01DX001 (ip), vehicle: saline 104 % of control | endpoint: mean survival time, dose: 300.0 mg/kg/injection, schedule: Q01DX001 (ip), vehicle: saline 104 % of control

COc1ccc(CNCCCCCCNCc2ccc(OC)cc2)cc1
inactive: [8] 100 % of control | [6] 95 % of control | [1] 101 % of control | [2] 87 % of control

O=c1n[n+]([O-])ccn1C1OC(CO)C(O)C1O (stereo not given)
active: endpoint: mean survival time, dose: 300.0 mg/kg/injection, schedule: Q01DX009 (ip), vehicle: saline 157 % of control and 173 % of control | endpoint: mean survival time, dose: 400.0 mg/kg/injection, schedule: Q01DX009 (ip), vehicle: saline 150 % of control | endpoint: median survival time, dose: 200.0 mg/kg/injection, schedule: Q01DX009 (ip), vehicle: saline 150 % of control | endpoint: median survival time, dose: 288.0 mg/kg/injection, schedule: Q01DX009 (ip), vehicle: saline 161 % of control | endpoint: median survival time, dose: 300.0 mg/kg/injection, schedule: Q01DX009 (ip), vehicle: saline 174 % of control | endpoint: median survival time, dose: 480.0 mg/kg/injection, schedule: Q01DX009 (ip), vehicle: saline 180 % of control
inactive: endpoint: mean survival time, dose: 50.0 mg/kg/injection, schedule: Q01DX009 (ip), vehicle: saline 107 % of control | endpoint: mean survival time, dose: 100.0 mg/kg/injection, schedule: Q01DX009 (ip), vehicle: saline 120 % of control and 121 % of control | endpoint: mean survival time, dose: 600.0 mg/kg/injection, schedule: Q01DX009 (ip), vehicle: saline 91 % of control

OCC1c2ccc(Cl)cc2Nc2ccc(Cl)cc21 (stereo not given)
inactive: [1] 93 % of control | [2] 89 % of control | [5] 91 % of control

O=C1OC(O)C(Br)=C1Br (stereo not given)
inactive: endpoint: mean survival time, dose: 100.0 mg/kg/injection, schedule: Q04DX002 (ip), vehicle: Klucel (hydroxypropylcellulose) (HPC) 105 % of control | endpoint: mean survival time, dose: 200.0 mg/kg/injection, schedule: Q04DX002 (ip), vehicle: Klucel (hydroxypropylcellulose) (HPC) 91 % of control | endpoint: mean survival time, dose: 400.0 mg/kg/injection, schedule: Q04DX002 (ip), vehicle: Klucel (hydroxypropylcellulose) (HPC) 89 % of control

CC(C)/C(=N\Nc1ccc([N+](=O)[O-])cc1[N+](=O)[O-])c1ccccc1
inactive: [6] 97 % of control | [7] 101 % of control | [4] 103 % of control

COc1cc(-c2[o+]c3cc(O)cc(O)c3cc2OC2OC(CO)C(O)C(O)C2O)cc(OC)c1O (stereo not given)
inactive: [9] 94 % of control | [8] 96 % of control | [6] 96 % of control

N#CCCOCCNCCSC(=O)c1ccccc1
inactive: [1] 95 % of control | [2] 101 % of control | [5] 95 % of control

c1ccc(C2=NNC(c3ccccn3)=NN2)nc1
inactive: [6] 95 % of control | [1] 97 % of control | [7] 101 % of control | [2] 92 % of control | [4] 97 % of control | [5] 101 % of control

Cc1ccc(S(=O)(=O)NS(=O)(=O)c2ccc(C)cc2)cc1
inactive: endpoint: mean survival time, dose: 25.0 mg/kg/injection, schedule: Q04DX003 (ip), vehicle: Klucel (hydroxypropylcellulose) (HPC) 106 % of control | endpoint: mean survival time, dose: 50.0 mg/kg/injection, schedule: Q04DX003 (ip), vehicle: Klucel (hydroxypropylcellulose) (HPC) 100 % of control | endpoint: mean survival time, dose: 75.0 mg/kg/injection, schedule: Q04DX003 (ip), vehicle: saline sonified 97 % of control | endpoint: mean survival time, dose: 100.0 mg/kg/injection, schedule: Q04DX003 (ip), vehicle: Klucel (hydroxypropylcellulose) (HPC) 88 % of control | endpoint: mean survival time, dose: 150.0 mg/kg/injection, schedule: Q04DX003 (ip), vehicle: saline sonified 95 % of control | endpoint: mean survival time, dose: 300.0 mg/kg/injection, schedule: Q04DX003 (ip), vehicle: saline sonified 101 % of control

CC(C)CC(=O)Nc1ccccc1
inactive: endpoint: mean survival time, dose: 100.0 mg/kg/injection, schedule: Q01DX009 (ip), vehicle: saline sonified 101 % of control | endpoint: mean survival time, dose: 200.0 mg/kg/injection, schedule: Q01DX009 (ip), vehicle: saline sonified 102 % of control | [3] 93 % of control

O=C(Cc1cccc2ccccc12)N/N=C/c1ccc2c(c1)CCC2
inactive: [1] 89 % of control | [2] 95 % of control | [5] 95 % of control

CC1(C)OC2COC3(COC(C)(C)O3)C(OS(C)(=O)=O)C2O1 (stereo not given)
inactive: [6] 102 % of control | [7] 93 % of control | [4] 95 % of control

COc1cnnc2ccccc12
inactive: [1] 104 % of control | [2] 103 % of control | [5] 92 % of control

CC(=O)O/C=C/C=C/C=N/c1nc2c(c(=O)n(C)c(=O)n2C)n1C
inactive: endpoint: mean survival time, dose: 12.5 mg/kg/injection, schedule: Q01DX005 (ip), vehicle: distilled water + Tween-80 105 % of control | endpoint: mean survival time, dose: 25.0 mg/kg/injection, schedule: Q01DX005 (ip), vehicle: distilled water + Tween-80 91 % of control | endpoint: mean survival time, dose: 50.0 mg/kg/injection, schedule: Q01DX005 (ip), vehicle: distilled water + Tween-80 94 % of control | endpoint: mean survival time, dose: 100.0 mg/kg/injection, schedule: Q01DX005 (ip), vehicle: distilled water + Tween-80 103 % of control | endpoint: mean survival time, dose: 200.0 mg/kg/injection, schedule: Q01DX005 (ip), vehicle: distilled water + Tween-80 97 % of control

O=[N+]([O-])c1cc(S(=O)(=O)F)ccc1Cl
inactive: endpoint: mean survival time, dose: 12.5 mg/kg/injection, schedule: Q01DX009 (ip), vehicle: saline with Tween-80 100 % of control | [9] 94 % of control | [8] 97 % of control and 103 % of control

COc1ccc(-c2cc(-c3ccccc3)n[nH]2)cc1
inactive: [1] 93 % of control | [2] 97 % of control | [5] 93 % of control

N#CCCC#N (tested in a mixture with another compound)
inactive: endpoint: mean survival time, dose: 50.0 mg/kg/injection, schedule: Q04DX002 (ip), vehicle: saline with Tween-80 96 % of control and 100 % of control | endpoint: mean survival time, dose: 100.0 mg/kg/injection, schedule: Q04DX002 (ip), vehicle: saline with Tween-80 96 % of control and 107 % of control | endpoint: mean survival time, dose: 200.0 mg/kg/injection, schedule: Q04DX002 (ip), vehicle: saline with Tween-80 100 % of control and 96 % of control | endpoint: mean survival time, dose: 400.0 mg/kg/injection, schedule: Q04DX002 (ip), vehicle: saline with Tween-80 92 % of control and 100 % of control

Nc1nc(N)c2c(n1)=NC(c1cccc3ccccc13)N=2 (stereo not given)
inactive: endpoint: mean survival time, dose: 6.25 mg/kg/injection, schedule: Q01DX005 (ip), vehicle: water 92 % of control | endpoint: mean survival time, dose: 12.5 mg/kg/injection, schedule: Q01DX005 (ip), vehicle: water 89 % of control | endpoint: mean survival time, dose: 25.0 mg/kg/injection, schedule: Q01DX005 (ip), vehicle: water 91 % of control | endpoint: mean survival time, dose: 50.0 mg/kg/injection, schedule: Q01DX005 (ip), vehicle: water 92 % of control | endpoint: mean survival time, dose: 100.0 mg/kg/injection, schedule: Q01DX005 (ip), vehicle: water 89 % of control | endpoint: mean survival time, dose: 200.0 mg/kg/injection, schedule: Q01DX005 (ip), vehicle: other 96 % of control | endpoint: mean survival time, dose: 400.0 mg/kg/injection, schedule: Q01DX005 (ip), vehicle: other 96 % of control

CC(=O)Nc1ccc(-c2c(NCCO)ncc3ccccc23)cc1
inactive: endpoint: mean survival time, dose: 25.0 mg/kg/injection, schedule: Q04DX003 (ip), vehicle: other 104 % of control | endpoint: mean survival time, dose: 50.0 mg/kg/injection, schedule: Q04DX003 (ip), vehicle: other 98 % of control | endpoint: mean survival time, dose: 100.0 mg/kg/injection, schedule: Q04DX003 (ip), vehicle: other 98 % of control | endpoint: mean survival time, dose: 200.0 mg/kg/injection, schedule: Q04DX003 (ip), vehicle: other 104 % of control

C#CCOC(=O)Nc1cccc(OC(=O)NC)c1
inactive: [1] 99 % of control | [2] 101 % of control | [5] 97 % of control

CCOC(Cc1cccc2ccccc12)(c1ccccc1)c1ccccc1
inactive: [1] 101 % of control | [2] 98 % of control | [5] 101 % of control
